Experimental findings from PMC10934261, “Designing Potent Anti-Cancer Agents: Synthesis and Molecular Docking Studies of Thieno[2,3-d][1,2,4]triazolo[1,5-a]pyrimidine Derivatives” (Molecules, 2024) are described below.

The test system of data set [1] is human breast MCF-7 cancer cell line. The data set can be described thus: In vitro cytotoxic screening (MTT assay), MCF-7. It is filed as cell-based. The note with it: average ± standard deviation. On the procedure:
(§1) Using human breast MCF-7, colorectal HCT-116, and prostate PC-3 cancer cell lines, preliminary antiproliferative effectiveness of cyclopenta[4,5]thieno[2,3-d][1,2,4]triazolo[1,5-a]pyrimidin-9(6H)-ones 4–16 was established in vitro through MTT assay at different concentrations (100, 50, 25 and 12.5 μM) (Figure 2).
(§2) The cell lines were obtained from Karolinska Center, Department of Oncology and Pathology, Karolinska Institute and Hospital, Stockholm, Sweden. as follows: human breast MCF-7, colorectal HCT-116 and prostate PC-3 cancer cell lines and human skin normal BJ-1 cell line. Exponentially, cells were cultured at a concentration of 10^4 cells/well for 24 h, afterwards fresh medium containing different concentrations of the tested samples was added. Serial two-fold dilution of the tested samples were added using a multichannel pipette. Moreover, all cells were cultivated at 37 °C, 5% CO2 and 95% humidity. Also, incubation of control cells occurred at 37 °C. However, after incubation for 24 h different concentrations of samples (100, 50, 25 and 12.5 µM) were added and the incubation was continued for 48 h, then crystal violet solution 1% was added to each well for 0.5 h to examine the presence of viable cells. After rinsing the wells using water until stain free, 30% glacial acetic acid was added to all wells with shaking the plates on a Microplate reader (TECAN, Inc.) to measure the absorbance at a wavelength of 490 nm. The cytotoxicity was estimated by IC50 in μM, which is the concentration that inhibits 50% of growth of cancer cells. […]
(§3) 1.1. In vitro cytotoxic screening
(§4) The cell lines were obtained from Karolinska Center, Department of Oncology and Pathology, Karolinska Institute and Hospital, Stockholm, Sweden. as follows: human breast MCF-7, colorectal HCT-116 and prostate PC-3 cancer cell lines and human skin normal BJ-1 cell line. Exponentially, cells were placed in 10^4 cells/ well for 24 h, and then add fresh medium which containing different concentration of the tested sample. Serial two-fold dilution of the tested sample were added using a multichannel pipette. Moreover, all cells were cultivated at 37 °C, 5% CO2 and 95% humidity. Also, incubation of control cells occurred at 37 °C. However, after incubation for 24 h different concentrations of sample (100, 50, 25 and 12.5 µM) were added and continued the incubation for 48 h, then, add the crystal violet solution 1% to each well for 0.5 h to examine viable cells. Rinse the wells using water until no stain. After that, add 30% glacial acetic acid to all wells with shaking plates on Microplate reader (TECAN, Inc.) to measure the absorbance, using a test wavelength of 490 nm. Besides, compare the treated samples with the control cell. The cytotoxicity was estimated by IC50 in (μ M), the concentration that inhibits 50% of growth of cancer cell. […]
(§5) The molecular docking simulation of the promising in vitro screened cyclopenta[4,5]thieno[2,3-d][1,2,4]triazolo[1,5-a]pyrimidin-9(6H)-ones 10b and 10e against EGFR and PI3K was done using the Molecular Operating Environment software (MOE-Dock) version 2014.0901. The co-crystallized structures of EGFR and PI3K kinases complexed with their native ligands, erlotinib and quinolone LXX, were downloaded from the protein data bank (PDB codes: 1M17 and 3L54, respectively). All minimizations were performed using MOE until an RMSD gradient of 0.05 kcal∙mol−1Å−1 with MMFF94x force field and the partial charges were automatically calculated. Preparation of the enzyme structures was done for molecular docking using Protonate 3D protocol with the default options in MOE. London dG scoring function and Triangle Matcher placement method were used in the docking protocol. Initially, the original ligands were re-docked into the active binding site of EGFR and PI3K kinases to assess the root-mean-square deviation values. Then, the docking studies of the newly targeted […]

Data set [2] has as its system human colorectal HCT-116 cancer cell line. The data set can be described thus: In vitro cytotoxic screening (MTT assay), HCT-116. The note with it: average ± standard deviation. It is filed as cell-based. Here is the method:
as §1, §2, §3, §4, §5
(Formazan colour is commonly taken as a measure of viable cells.)

The subject of data set [3] is human prostate PC-3 cancer cell line. The data set can be described thus: In vitro cytotoxic screening (MTT assay), PC-3. It is filed as cell-based. The note with it: average ± standard deviation. On the procedure: as §1, §2, §3, §4, §5

In general, melting point refers to the temperature, or range, at which the solid turns liquid. Consider `CC(=O)C/C(C)=N/n1c(N)nc2sc3c(c2c1=O)CCC3` [Compound 8, (E)-2-Amino-3-((4-oxopentan-2-ylidene)amino)-3,5,6,7-tetrahydro-4H-cyclopenta[4,5]thieno[2,3-d]pyrimidin-4-one], for which the melting point was over 300 °C. The “Percentage cytotoxicity on MCF-7” value in data set [1] (12.5 µM) was found to be 30.1±4.1%. The “Percentage cytotoxicity on MCF-7” value in data set [1] (25 µM) is listed as 31.9±3.1%. The “Percentage cytotoxicity on MCF-7” value in data set [1] (50 µM) turned out to be 40.9±7.8%. For the same compound, the “Percentage cytotoxicity on MCF-7” value in data set [1] (100 µM) stood at 45.7±5.9%. Moreover, the “Percentage cytotoxicity on HCT-116” value in data set [2] (12.5 µM) is recorded as 0.0±0.005%. Besides, the “Percentage cytotoxicity on HCT-116” value in data set [2] (25 µM) is reported as 0.0±0.005%. Further, the “Percentage cytotoxicity on HCT-116” value in data set [2] (50 µM) is reported as 0.0±0.005%. The “Percentage cytotoxicity on HCT-116” value in data set [2] (100 µM) is given as 0.0±0.005%. For the same compound, in data set [3] (12.5 µM), the “Percentage cytotoxicity on PC-3” value was determined as 0.0±0.005%. The “Percentage cytotoxicity on PC-3” value in data set [3] (25 µM) worked out at 0.0±0.005%. In addition, the “Percentage cytotoxicity on PC-3” value in data set [3] (50 µM) came out at 0.0±0.005%. In data set [3] (100 µM), the “Percentage cytotoxicity on PC-3” value is 0.0±0.005%.

Consider `CCOC(=O)Cc1nn2c(=O)c3c4c(sc3nc2[nH]1)CCC4` [Compound 6, Ethyl 2-(9-oxo-6,7,8,9-tetrahydro-3H-cyclopenta[4,5]thieno[2,3-d][1,2,4]triazolo[1,5-a]-pyrimidin-2-yl)acetate], for which the melting point is over 300 °C. Also, the “Percentage cytotoxicity on MCF-7” value in data set [1] (12.5 µM) was 0.0±0.005%. For the same compound, the “Percentage cytotoxicity on MCF-7” value in data set [1] (25 µM) is recorded as 0.0±0.005%. The “Percentage cytotoxicity on MCF-7” value in data set [1] (50 µM) was 0.0±0.005%. The “Percentage cytotoxicity on MCF-7” value in data set [1] (100 µM) came to 24±2.5%. Moreover, in data set [2] (12.5 µM), the “Percentage cytotoxicity on HCT-116” value is given as 0.0±0.005%. For the same compound, in data set [2] (25 µM), the “Percentage cytotoxicity on HCT-116” value is reported as 0.0±0.005%. The “Percentage cytotoxicity on HCT-116” value in data set [2] (50 µM) came to 0.0±0.005%. For the same compound, the “Percentage cytotoxicity on HCT-116” value in data set [2] (100 µM) was determined as 0.0±0.005%. Further, the “Percentage cytotoxicity on PC-3” value in data set [3] (12.5 µM) is 0.0±0.005%. The “Percentage cytotoxicity on PC-3” value in data set [3] (25 µM) is reported as 0.0±0.005%. Moreover, the “Percentage cytotoxicity on PC-3” value in data set [3] (50 µM) was 0.0±0.005%. Also, the “Percentage cytotoxicity on PC-3” value in data set [3] (100 µM) is recorded as 15.1±4.1%.

The compound `CC(=O)OC[C@@H](OC(C)=O)[C@@H](OC(C)=O)[C@H](OC(C)=O)c1nc2nc3sc4c(c3c(=O)n2[nH]1)CCC4` [Compound 12d, (1R,2S,3R)-1-(9-oxo-1,7,8,9-tetrahydro-6H-cyclopenta[4,5]thieno[2,3-d][1,2,4]triazolo[1,5-a]pyrimidin-2-yl)butane-1,2,3,4-tetrayl tetraacetate] returned a melting point of over 300 °C. Further, the “Percentage cytotoxicity on MCF-7” value in data set [1] (12.5 µM) came out at 0.0±0.005%. Also, in data set [1] (25 µM), the “Percentage cytotoxicity on MCF-7” value came out at 0.0±0.005%. Also, the “Percentage cytotoxicity on MCF-7” value in data set [1] (50 µM) came out at 0.0±0.005%. For the same compound, the “Percentage cytotoxicity on MCF-7” value in data set [1] (100 µM) is 26.9±4.8%. Also, the “Percentage cytotoxicity on HCT-116” value in data set [2] (12.5 µM) was found to be 0.0±0.005%. Also, the “Percentage cytotoxicity on HCT-116” value in data set [2] (25 µM) was 0.0±0.005%. Further, the “Percentage cytotoxicity on HCT-116” value in data set [2] (50 µM) is 0.0±0.005%. Further, in data set [2] (100 µM), the “Percentage cytotoxicity on HCT-116” value is 9.5±1.2%. The “Percentage cytotoxicity on PC-3” value in data set [3] (12.5 µM) came to 0.0±0.005%. For the same compound, the “Percentage cytotoxicity on PC-3” value in data set [3] (25 µM) came out at 0.0±0.005%. Besides, the “Percentage cytotoxicity on PC-3” value in data set [3] (50 µM) came out at 0.0±0.005%. The “Percentage cytotoxicity on PC-3” value in data set [3] (100 µM) stood at 14.1±6.2%.

Compound `Cc1nn2c(=O)c3c4c(sc3nc2[nH]1)CCC4` [Compound 5, 2-Methyl-7,8-dihydro-3H-cyclopenta[4,5]thieno[2,3-d][1,2,4]triazolo[1,5-a]pyrimidin-9(6H)-one] displayed a melting point of 93 to 95 °C. The “Percentage cytotoxicity on MCF-7” value in data set [1] (12.5 µM) was found to be 0.0±0.005%. The “Percentage cytotoxicity on MCF-7” value in data set [1] (25 µM) came to 0.0±0.005%. Further, in data set [1] (50 µM), the “Percentage cytotoxicity on MCF-7” value was 0.0±0.005%. For the same compound, in data set [1] (100 µM), the “Percentage cytotoxicity on MCF-7” value was 18.9±10%. Also, the “Percentage cytotoxicity on HCT-116” value in data set [2] (12.5 µM) worked out at 0.0±0.005%. For the same compound, the “Percentage cytotoxicity on HCT-116” value in data set [2] (25 µM) is listed as 0.0±0.005%. Also, the “Percentage cytotoxicity on HCT-116” value in data set [2] (50 µM) was found to be 0.0±0.005%. In addition, the “Percentage cytotoxicity on HCT-116” value in data set [2] (100 µM) was found to be 0.0±0.005%. In addition, in data set [3] (12.5 µM), the “Percentage cytotoxicity on PC-3” value came out at 0.0±0.005%. The “Percentage cytotoxicity on PC-3” value in data set [3] (25 µM) came to 0.0±0.005%. In addition, the “Percentage cytotoxicity on PC-3” value in data set [3] (50 µM) worked out at 0.0±0.005%. The “Percentage cytotoxicity on PC-3” value in data set [3] (100 µM) turned out to be 0.0±0.005%.
